# In US8278464B2, “Insecticides” (Syngenta Crop Protection LLC, priority 2006, dated 2012):
# Key:
# [1] = tested on: Diabrotica balteata (Corn Root Worm); test: Activity against Diabrotica balteata, artificial diet MTP (Example B4); type: in vivo; settings: 120 h, L2 larvae, incubation 5 days
# Method: (§1) 24-well microtiter plate (MTP) with artificial diet is treated with test solutions by pipetting. After drying, the MTP's are infested with larvae (L2) (6-10 per well). After an incubation period of 5 days, samples are checked for larval mortality, antifeedant and growth regulation. In this test, compounds listed in the Tables above show good activity. In particular compounds T13.1.2, T15.1.1, T15.1.91, T13.1.1, T9.1.2 (diastereomer A), T9.1.2 (diastereomer B), T17.1.2 (diastereomer A), T17.1.2 (diastereomer B), T16.1.91, T13.1.92, T13.1.91, T13.1.6, T13.1.96, T44.1.2, T13.1.8, T13.1.23, T13.1.113, T13.1.21, T13.1.111 have an activity of over 80% at 400 ppm.
# [2] = tested on: Heliothis virescens (Tobacco Budworm); test: Activity against Heliothis virescens, eggs on artificial diet (Example B2); type: in vivo; settings: 96 h, eggs 0-24 h old, incubation 4 days
# Method: Eggs (0-24 h old) are placed in 24-well microtiter plate on artificial diet and treated with test solutions by pipetting. After an incubation period of 4 days, samples are checked for egg mortality, larval mortality, and growth regulation.
# [3] = tested on: Plutella xylostella (Diamond Back Moth); test: Activity against Plutella xylostella, artificial diet MTP (Example B3); type: in vivo; settings: 120 h, L2 larvae, incubation 5 days
# Method: as §1, with “larvae (L2) (10-15 per well).” for “larvae (L2) (6-10 per well).”, “(diastereomer B), T16.1.1, T17.1.2 (diastereomer” for “(diastereomer B), T17.1.2 (diastereomer”, “T16.1.91, T13.1.92, T13.1.361, T13.1.391, T13.1.91, T13.1.6,” for “T16.1.91, T13.1.92, T13.1.91, T13.1.6,”, “T13.1.8, T13.1.23, T13.1.93, T13.1.113, T13.1.21,” for “T13.1.8, T13.1.23, T13.1.113, T13.1.21,”
# [4] = tested on: Myzus persicae (Green Peach Aphid); test: Activity against Myzus persicae, systemic, pea seedlings (Example B6); type: in vivo; settings: 144 h, 6 days after introduction
# Source text: Roots of pea seedlings, infested with an aphid population of mixed ages, are placed directly in the test solutions. 6 days after introduction, samples are checked for mortality and special effects on the plant.
# [5] = tested on: Spodoptera littoralis (Egyptian Cotton Leafworm); test: Activity against Spodoptera littoralis, cotton leaf discs sprayed (Example B1); type: in vivo; settings: foliar, 72 h, L1 larvae, checked 3 days after treatment
# Source text: Cotton leaf discs are placed on agar in a 24-well microtiter plate and sprayed with test solutions. After drying, the leaf discs are infested with 5 L1 larvae. The samples are checked for mortality, repellent effect, feeding behaviour, and growth regulation 3 days after treatment (DAT).
# [6] = tested on: Spodoptera littoralis (Cotton Leafworm); test: Systemic insecticide test for Spodoptera littoralis, maize seedlings, 12.5 ppm (Example B9); type: in vivo; settings: 96 h, 12.5 ppm in water, systemic via maize seedlings, larvae incubated four days
# Method: Four day old maize seedlings (Zea mais, variety Stoneville) are placed individual in vials containing 24 ml water into which the chemical is diluted at 12.5 ppm. Seedlings are allowed to grow for six days. Subsequently leaves are cut and placed in a Petri dish (5 cm diameter), inoculated with twelve to fifteen 1st instar S. littoralis larvae and incubated for four days in a growth chamber (25° C., 50% r.h., 18:6 L:D photo period). Number of alive insects are counted and percentage of dead calculated. Tests were conducted with one replicate.
# [7] = tested on: Thrips tabaci (Onion Thrips); test: Activity against Thrips tabaci, sunflower leaf discs (Example B7); type: in vivo; settings: foliar, 144 h, incubation 6 days
# Method: Sunflower leaf discs are placed on agar in a 24-well microtiter plate and sprayed with test solutions. After drying, the leaf discs are infested with a thrips population of mixed ages. After an incubation period of 6 days, samples are checked for mortality and special effects (e.g. phytotoxicity).
# [8] = tested on: Myzus persicae (Green Peach Aphid); test: Activity against Myzus persicae, contact, sunflower leaf discs (Example B5); type: in vivo; settings: foliar, 144 h, 6 DAT
# Method: Sunflower leaf discs are placed on agar in a 24-well microtiter plate and sprayed with test solutions. After drying, the leaf discs are infested with an aphid population of mixed ages. After an incubation period of 6 DAT, samples are checked for mortality and special effects (e.g. phytotoxicity).
melting point [°C],Structure (SMILES),pest or weed control at 400 ppm [1] [%],pest or weed control at 400 ppm [2] [%],pest or weed control at 400 ppm [3] [%],pest or weed control at 400 ppm [4] [%],pest or weed control at 400 ppm [5] [%],pest or weed control at 12.5 ppm [6] [%],pest or weed control at 400 ppm [7] [%],pest or weed control at 400 ppm [8] [%]
244 to 249,Cc1cc(C#N)cc(C(=O)NC2(C)C[S+]([O-])C2)c1NC(=O)c1cc(Br)nn1-c1ncccc1Cl (stereo not shown),,,,,,,,
241 to 244,"Cc1cc(Cl)cc(C(=O)NC2C[S+]([O-])C2)c1NC(=O)c1cc(C(F)(F)F)nn1-c1ncccc1Cl (single isomer, unassigned)",,,,,,,,
,Cc1cc(Cl)cc(C(=O)NC2CS(=O)(=O)C2)c1NC(=O)c1cc(C(F)(F)F)nn1-c1ncccc1Cl [T13.1.1],> 80,> 80,> 80,> 80,> 80,> 80,> 80,
,Cc1cc(Cl)cc(C(=O)NC2CS(=O)(=O)C2)c1NC(=O)c1cc(Br)nn1-c1ncccc1Cl [T13.1.6],> 80,> 80,> 80,> 80,> 80,> 80,> 80,
,CCC1(NC(=O)c2cc(Cl)cc(C)c2NC(=O)c2cc(Br)nn2-c2ncccc2Cl)CS(=O)(=O)C1 [T13.1.8],> 80,> 80,> 80,,> 80,> 80,,
,CCC1(NC(=O)c2cc(Cl)cc(C)c2NC(=O)c2cc(OCC(F)(F)F)nn2-c2ncccc2Cl)CS(=O)(=O)C1 [T13.1.23],> 80,> 80,> 80,,> 80,> 80,,
,Cc1cc(C#N)cc(C(=O)NC2CS(=O)(=O)C2)c1NC(=O)c1cc(C(F)(F)F)nn1-c1ncccc1Cl [T13.1.91],> 80,> 80,> 80,,> 80,> 80,> 80,> 80
,CCC1(NC(=O)c2cc(C#N)cc(C)c2NC(=O)c2cc(C(F)(F)F)nn2-c2ncccc2Cl)CS(=O)(=O)C1 [T13.1.93],,> 80,> 80,> 80,> 80,,> 80,
,Cc1cc(C#N)cc(C(=O)NC2CS(=O)(=O)C2)c1NC(=O)c1cc(OCC(F)(F)F)nn1-c1ncccc1Cl [T13.1.111],> 80,> 80,> 80,,> 80,,> 80,
,CCC1(NC(=O)c2cc(C#N)cc(C)c2NC(=O)c2cc(OCC(F)(F)F)nn2-c2ncccc2Cl)CS(=O)(=O)C1 [T13.1.113],> 80,> 80,> 80,> 80,> 80,> 80,> 80,
,Cc1cccc(C(=O)NC2CS(=O)(=O)C2)c1NC(=O)c1cc(C(F)(F)F)nn1-c1ncccc1Cl [T13.1.361],,> 80,> 80,,> 80,> 80,,
,Cc1cc(Cl)cc(C(=O)NC2CS(=O)(=O)C2(C)C)c1NC(=O)c1cc(C(F)(F)F)nn1-c1ncccc1Cl (stereo not shown) [T15.1.1],> 80,> 80,> 80,,> 80,> 80,,
,Cc1cc(C#N)cc(C(=O)NC2CS(=O)(=O)C2(C)C)c1NC(=O)c1cc(C(F)(F)F)nn1-c1ncccc1Cl (stereo not shown) [T15.1.91],> 80,> 80,> 80,,> 80,,> 80,> 80
,Cc1cc(Cl)cc(C(=O)NC2C(C)(C)S(=O)(=O)C2(C)C)c1NC(=O)c1cc(C(F)(F)F)nn1-c1ncccc1Cl [T16.1.1],,> 80,> 80,,> 80,,,
,Cc1cc(C#N)cc(C(=O)NC2C(C)(C)S(=O)(=O)C2(C)C)c1NC(=O)c1cc(C(F)(F)F)nn1-c1ncccc1Cl [T16.1.91],> 80,> 80,> 80,,> 80,,> 80,
,"Cc1cc(Cl)cc(C(=O)NC2(C)CN(Cc3ccccc3)C2)c1NC(=O)c1cc(C(F)(F)F)nn1-c1ncccc1Cl [T44.1.2, 2-(3-chloro-pyridin-2-yl)-5-trifluoromethyl-2H-pyrazole-3-carboxylic acid [4-chloro-2-methyl-6-(3-methyl-N-benzylazetidine-3-ylcarbamoyl)-phenyl]-amide]",> 80,> 80,> 80,,> 80,> 80,> 80,
